Assay results published in patent US8101180B2, “Anti-IGF-IR and/or anti-insulin/IGF-I hybrid receptors antibodies and uses thereof” (Pierre Fabre Medicament, priority 2002, dated 2012).
Entries after “also recorded” stand apart in the source; their conditions may differ.

Key:
[1] = tested on: noninfected Sf9 insect cells; experiment: FACS labeling of noninfected Sf9 insect cells; format: binding; conditions: FACScan
Excerpt: In FIG. 4B, Sf9 cells uniquely expressing IGF-IR are labeled with αIR3 (2) or anti-IR(3), the peak (1) representing the single cells. In FIG. 4C, Sf9 cells uniquely expressing IR are labeled with an anti-IR (3) or αIR3 (2), the peak (1) representing the single cells.
evaluating the supernatants of hybridomas positive in the two first screenings in terms of differential recognition of IGF-IR and of IR on insect cells infected with baculoviruses respectively expressing IGF-IR or IR,
For the immunization stage, mice were injected twice, by the subcutaneous route, with 8 μg of recombinant IGF-IR. Three days before the fusion of the cells of the […] with the cells of the murine myeloma Sp2OAg14, the mice were stimulated by an intravenous injection of 3 μg of the recombinant receptor. Fourteen days after the fusion, the supernatants of hybridomas were screened by ELISA, on plates sensitized by recombinant IGF-IR. The hybridomas whose supernatants were found positive were conserved and amplified before being tested on the FACScan so as to verify that the antibodies produced were likewise capable of recognizing native IGF-IR. In order to do this, MCF-7 cells from an estrogen-dependent tumor of the breast overexpressing IGF-IR were incubated with each of the culture supernatants produced by the hybridomas selected in ELISA. […]

MCF-7 cells = experiment: IGF2-induced proliferation of MCF-7 cells; format: cell-based, human; conditions: IGF2 200 ng/ml; MAb 10 μg/ml
Protocol: As indicated above, IGF-IR is overexpressed by numerous tumors but it has furthermore been described that in a good part of the cancers of the breast and of the colon especially, the proliferation signal is given to this receptor via IGF2 (sometimes written IGF-II or IGFII). […] In order to do this, cells were inoculated into 96-well plates, deprived of fetal calf serum and stimulated by the addition of 200 ng of IGF2 per ml, final concentration, of medium, in the presence and in the absence of the MAb to be tested introduced at a concentration of 10 μg/ml.

DU145 tumor = experiment: DU145 androgen-independent prostate tumor xenograft; format: in vivo, nude mice; conditions: 250 μg/dose/mouse twice per week i.p.
Protocol: (§1) In these 4 models, the treatment was carried out twice per week i.p. at a rate of 250 μg/dose/mouse.

SK-ES-1 tumor = experiment: SK-ES-1 osteosarcoma xenograft; format: in vivo, nude mice; conditions: 250 μg/dose/mouse twice per week i.p.
Protocol: as §1

BxPC3 tumor = experiment: BxPC3 pancreatic cancer xenograft; format: in vivo, nude mice; conditions: 250 μg/dose/mouse twice per week i.p.
Protocol: as §1

[2] = tested on: A549 cells implanted intrapleurally; experiment: Orthotopic (intrapleural) A549 model, survival; conditions: 10^6 A549 cells intrapleural; Example 3b: 500 μg/mouse challenge then 250 μg twice per week
Protocol: In order to evaluate our antibody in a model closer to reality, the A549 cells were implanted in an intrapleural location. […] In the study which was carried out, 10^6 A549 cells were injected intrapleurally into female nude mice. 7 days after implantation, the mice were divided into 2 batches of 22.
In order to evaluate the antitumor activity of an antibody mixture directed respectively against IGF-IR and EGFR, 10^6 A549 cells (non-small cell lung cancer) were implanted in the intrapleural cavity of nude mice.
For the combined therapy, antibodies were mixed prior to the injection.
The T/C % are calculated according the following formula, [MEDIAN OF TREATED MICE/MEDIAN OF CONTROL MICE×100].

A549 cells = experiment: ADCC with human NK cells on A549 cells (51Cr); format: cell-based; conditions: 4 hours, 10 μg antibody per 5·10^5 cells
Protocol: In order to verify this point, NK (Natural Killer) cells coming from the peripheral blood of human donors are placed in the presence of A549 or MCF-7 cells previously incubated for 4 hours with 10 μg of 7H2HM antibody per 5·10^5 cells and labeled with ^51Cr ([…]).

Row | Substance | MFI (Mean fluorescence intensity), Noninfected cells [1] | inhibition of IGF2-induced growth of MCF-7 cells (MCF-7 cells) | antitumor activity in DU145 model (DU145 tumor) | antitumor activity in SKES-1 osteosarcoma model (SK-ES-1 tumor) | antitumor activity in BxPC3 model (BxPC3 tumor) | survival of mice orthotopically implanted with A549 cells [2] | ADCC on A549 cells (A549 cells)
1 | 7C10: murine monoclonal anti-IGF-IR IgG1 secreted by the hybridoma deposited at the CNCM under the number I-2717 | 8.6 | totally inhibits the growth induced by IGF2; also recorded: significantly better than that of 1H7 | significant activity | significant activity | significant activity | significant extension of survival; also recorded: comparable and a significant gain in survival | –
2 | h7C10: humanized 7C10 anti-IGF-IR antibody, isotype IgG1 (humanized 1 written 7H2HM) | – | – | – | – | – | – | capable of inducing an ADCC
